9 compounds from patent publication US8691757B2 (Bristol-Myers Squibb Company, priority 2011, dated 2014) can be followed below.

Assay [1] concerns HCV genotype 1a (H77 strain) replicon in HUH-7 cells. As to the kind of experiment: HCV replicon luciferase reporter assay, genotype 1a. The assay is classed as cell-based. Particulars: Hepatitis C virus, 72 h, HCV genotype 1a replicon, 3 days incubation, Renilla luciferase. The text has this:
(§1) An HCV replicon whole cell system was established as described by Lohmann V, Korner F, Koch J, Herian U, Theilmann L, Bartenschlager R., Science 285(5424):110-3 (1999) and modified to introduce a luciferase reporter, as first described by Krieger et al (Krieger N, Lohmann V, and Bartenschlager R, J. Virol. 75(10):4614-4624 (2001)). CDNA encoding a humanized form of the Renilla luciferase gene and a linker sequence fused directly to the 3′-end of the luciferase gene were introduced into the replicon construct using an Asc1 restriction site located in core, directly upstream of the neomycin marker gene. The adaptive mutation at position 1179 (serine to isoleucine) was also introduced (Blight K J, Kolykhalov, A A, Rice, C M, Science 290(5498):1972-1974). A stable cell line constitutively expressing this HCV replicon construct was generated by first linearizing plasmid DNAs with ScaI. RNA transcripts were synthesized in vitro using the T7 MegaScript transcription kit (Ambion, Austin, Tex.) according to manufacturer's directions. In vitro transcripts of the cDNA were transfected into the human hepatoma cell line, HUH-7. […] Resulting cell lines were characterized for positive and negative strand RNA production and protein production over time.
A stable HCV replicon luciferase reporter cell line representing the genotype 1a H77 strain (Yanagi M, Purcell R H, Emerson S U, et al. Transcripts from a single full-length cDNA clone of hepatitis C virus are infectious when directly transfected into the liver of a chimpanzee. Proc Natl Acad Sci USA 1997; 94(16):8738-8743) was generated as described previously for the genotype 1b (Con1) replicon luciferase cell line. The replicon construct was modified by introducing mutations were introduced into the genes encoding the NS3 helicase domain (proline replaced by leucine at position 1496) and NS5A (serine to isoleucine at position 2204) to improve replication in cell culture.
(§2) HCV replicon luciferase assays were developed to monitor the inhibitory effects of compounds described in the disclosure on HCV genotypes 1a and 1b viral replication. HUH-7 cells, constitutively expressing the HCV replicon, were grown in Dulbecco's Modified Eagle Media (DMEM) (Gibco-BRL) containing 10% Fetal calf serum (FCS) (Sigma) and 1 mg/mL G418 (Gibco-BRL). Compounds were serially diluted 3 folds in DMSO for a twenty-point titration and subsequently transferred to sterile 384-well tissue-culture treated plates (Corning cat #3571). The plates were then seeded with 50 μL of cells at a density of 3.0×10^3 cells/well in DMEM containing 4% FCS (final DMSO concentration at 0.5%). After 3 days incubation at 37° C., cells were analyzed for Renilla Luciferase activity using the EnduRen as substrate (Promega cat #E6485). The EnduRen substrate was diluted in DMEM and then added to the plates to a final concentration of 7.5 μM. The plates were incubated for 2 hrs at 37° C. and then read immediately for 30 seconds with Viewlux Imager (PerkinElmer) using a luminescence program. To assess cytotoxicity of compounds, CC50 values were generated by multiplexing the EnduRen-containing plates with Cell Titer-Blue (Promega, cat #G8082). Cell-Titer Blue (3 μL) was added to each well and incubated for 8 hrs at 37° C. The fluorescence signal from each well was read, with an excitation wavelength at 525/10 nm and an emission wavelength of 598/10 nm, using the Viewlux Imager.
(§3) The EC50 values for compounds were calculated by using a four-parameter logistic equation: y=A+((B−A)/(1+((C/x)^D))), where A and B denotes minimal and maximal % inhibition, respectively, C is the EC50, D is the hill slope and x represents compound concentration.

Assay [2] concerns HCV genotype 1b (Con1) replicon in HUH-7 cells. As to the kind of experiment: HCV replicon luciferase reporter assay, genotype 1b. The assay is classed as cell-based. Particulars: Hepatitis C virus, 72 h, HCV genotype 1b replicon, 3 days incubation, Renilla luciferase.
Source text: as §1, with “time. […]” for “time.”
as §2, §3

As to `C[C@@H]1CCC[C@@H](C)/C=C\[C@@H]2C[C@@]2(C(=O)NS(=O)(=O)C2CC2)NC(=O)[C@@H]2C[C@@H](Oc3nccc4ccccc34)CN2C(=O)[C@H]1NC(=O)OC(C)(C)C(F)(F)F` [Compound 34, 1,1,1-trifluoro-2-methylpropan-2-yl (2R,6S,7R,11R,13aS,14aR,16aS,Z)-14a-(cyclopropylsulfonylcarbamoyl)-2-(isoquinolin-1-yloxy)-7,11-dimethyl-5,16-dioxo-1,2,3,5,6,7,8,9,10,11,13a,14,14a,15,16,16a-hexadecahydrocyclopropa[e]pyrrolo[1,2-a][1,4]diazacyclopentadecin-6-ylcarbamate], the EC50 (as a rule, the concentration giving half of the maximal effect) lay within 2.01 to 5 nM in assay [1] (range classes) and 0.2 to 1 nM in assay [2] (range classes).

In the case of `COc1cnc(O[C@@H]2C[C@H]3C(=O)N[C@]4(C(=O)NS(=O)(=O)C5(C)CC5)C[C@H]4/C=C\[C@H](C)CCC[C@@H](C)[C@H](NC(=O)OC(C)(C)C(F)(F)F)C(=O)N3C2)c2ccccc12` [Compound 35, 1,1,1-trifluoro-2-methylpropan-2-yl (2R,6S,7R,11R,13aS,14aR,16aS,Z)-2-(4-methoxyisoquinolin-1-yloxy)-7,11-dimethyl-14a-(1-methylcyclopropylsulfonylcarbamoyl)-5,16-dioxo-1,2,3,5,6,7,8,9,10,11,13a,14,14a,15,16,16a-hexadecahydrocyclopropa[e]pyrrolo[1,2-a][1,4]diazacyclopentadecin-6-ylcarbamate], the EC50 was determined as 1.96 nM in assay [1] (numeric values) and 0.51 nM in assay [2] (numeric values).

For the compound `COc1ccc2c(O[C@@H]3C[C@H]4C(=O)N[C@]5(C(=O)NS(=O)(=O)C6(C)CC6)C[C@H]5/C=C\[C@H](C)CCC[C@@H](C)[C@H](NC(=O)OC(C)(C)C(F)(F)F)C(=O)N4C3)ncc(OC)c2c1` [Compound 14, 1,1,1-trifluoro-2-methylpropan-2-yl (2R,6S,7R,11R,13aS,14aR,16aS,Z)-2-(4,6-dimethoxyisoquinolin-1-yloxy)-7,11-dimethyl-14a-(1-methylcyclopropylsulfonylcarbamoyl)-5,16-dioxo-1,2,3,5,6,7,8,9,10,11,13a,14,14a,15,16,16a-hexadecahydrocyclopropa[e]pyrrolo[1,2-a][1,4]diazacyclopentadecin-6-ylcarbamate], the EC50 lay in the range of 2.01 to 5 nM in assay [1] (range classes) and 1.01 to 2 nM in assay [2] (range classes).

Take `COc1ccc2nc(O[C@@H]3C[C@H]4C(=O)N[C@]5(C(=O)NS(=O)(=O)C6CC6)C[C@H]5/C=C\[C@H](C)CCC[C@@H](C)[C@H](NC(=O)OC(C)(C)C)C(=O)N4C3)cnc2c1` [Compound 26, tert-butyl (2R,6S,7R,11R,13aS,14aR,16aS,Z)-14a-(cyclopropylsulfonylcarbamoyl)-2-(6-methoxyquinoxalin-2-yloxy)-7,11-dimethyl-5,16-dioxo-1,2,3,5,6,7,8,9,10,11,13a,14,14a,15,16,16a-hexadecahydrocyclopropa[e]pyrrolo[1,2-a][1,4]diazacyclopentadecin-6-ylcarbamate]: the EC50 came out at 215 nM in assay [1] (numeric values) and 86.5 nM in assay [2] (numeric values).

As for `COc1ccc2ncc(O[C@@H]3C[C@H]4C(=O)N[C@]5(C(=O)NS(=O)(=O)C6CC6)C[C@H]5/C=C\[C@@H](C)CCC[C@@H](C)[C@H](NC(=O)OC(C)(C)C)C(=O)N4C3)nc2c1` [Compound 29, tert-butyl (2R,6S,7R,11S,13aS,14aR,16aS,Z)-14a-(cyclopropylsulfonylcarbamoyl)-2-(7-methoxyquinoxalin-2-yloxy)-7,11-dimethyl-5,16-dioxo-1,2,3,5,6,7,8,9,10,11,13a,14,14a,15,16,16a-hexadecahydrocyclopropa[e]pyrrolo[1,2-a][1,4]diazacyclopentadecin-6-ylcarbamate], the EC50 in assay [1] (range classes) and in assay [2] (range classes) was 5.01 to 68 nM throughout.

For the compound `COc1cnc(O[C@@H]2C[C@H]3C(=O)N[C@]4(C(=O)NS(=O)(=O)C5CC5)C[C@H]4/C=C\[C@H](C)CCC[C@@H](C)[C@H](NC(=O)OC(C)(C)C)C(=O)N3C2)c2cccc(Cl)c12` [Compound 5, tert-butyl (2R,6S,7R,11R,13aS,14aR,16aS,Z)-2-(5-chloro-4-methoxyisoquinolin-1-yloxy)-14a-(cyclopropylsulfonylcarbamoyl)-7,11-dimethyl-5,16-dioxo-1,2,3,5,6,7,8,9,10,11,13a,14,14a,15,16,16a-hexadecahydrocyclopropa[e]pyrrolo[1,2-a][1,4]diazacyclopentadecin-6-ylcarbamate], the EC50 in assay [1] (numeric values) stood at 0.41 nM; in assay [2] (numeric values), 1.2 nM.

Take `COc1ccc2ncc(O[C@@H]3C[C@H]4C(=O)N[C@]5(C(=O)NS(=O)(=O)C6CC6)C[C@H]5/C=C\[C@H](C)CCC[C@@H](C)[C@H](NC(=O)OC(C)(C)C)C(=O)N4C3)nc2c1` [Compound 28, tert-butyl (2R,6S,7R,11R,13aS,14aR,16aS,Z)-14a-(cyclopropylsulfonylcarbamoyl)-2-(7-methoxyquinoxalin-2-yloxy)-7,11-dimethyl-5,16-dioxo-1,2,3,5,6,7,8,9,10,11,13a,14,14a,15,16,16a-hexadecahydrocyclopropa[e]pyrrolo[1,2-a][1,4]diazacyclopentadecin-6-ylcarbamate]: the figures for the EC50 in assay [1] (range classes) and in assay [2] (range classes) were 5.01 to 68 nM and 1.01 to 2 nM, respectively.

With `COc1cnc(O[C@@H]2C[C@H]3C(=O)N[C@]4(C(=O)NS(=O)(=O)C5CC5)C[C@H]4/C=C\[C@@H](C)CCC[C@@H](C)[C@H](NC(=O)OC(C)(C)C(F)(F)F)C(=O)N3C2)c2ccccc12` [Compound 4, 1,1,1-trifluoro-2-methylpropan-2-yl (2R,6S,7R,11S,13aS,14aR,16aS,Z)-14a-(cyclopropylsulfonylcarbamoyl)-2-(4-methoxyisoquinolin-1-yloxy)-7,11-dimethyl-5,16-dioxo-1,2,3,5,6,7,8,9,10,11,13a,14,14a,15,16,16a-hexadecahydrocyclopropa[e]pyrrolo[1,2-a][1,4]diazacyclopentadecin-6-ylcarbamate], the EC50 in assay [1] (numeric values) was determined as 4.9 nM; in assay [2] (numeric values), 2.8 nM.

Take `COc1ccc2c(O[C@@H]3C[C@H]4C(=O)N[C@]5(C(=O)NS(=O)(=O)C6CC6)C[C@H]5/C=C\[C@H](C)CCC[C@@H](C)[C@H](NC(=O)OC(C)(C)C(F)(F)F)C(=O)N4C3)nccc2c1` [Compound 9, 1,1,1-trifluoro-2-methylpropan-2-yl (2R,6S,7R,11R,13aS,14aR,16aS,Z)-14a-(cyclopropylsulfonylcarbamoyl)-2-(6-methoxyisoquinolin-1-yloxy)-7,11-dimethyl-5,16-dioxo-1,2,3,5,6,7,8,9,10,11,13a,14,14a,15,16,16a-hexadecahydrocyclopropa[e]pyrrolo[1,2-a][1,4]diazacyclopentadecin-6-ylcarbamate]: the concentration for a half-maximal effect (EC50) in assay [1] (numeric values) is 1 nM; in assay [2] (numeric values), 0.36 nM.
